According to patent publication US11622990B2, “VAP polypeptide and use thereof in preparation of drug for targeted diagnosis and treatment of tumor” (FUDAN UNIVERSITY, priority 2016, dated 2023):
Ends that are not written are not given here.

Experiments:
[1] = Serum stability of VAP peptides in mouse serum; assay type: in vitro ADME; details: 50% mouse serum, 37° C., after 2 h incubation
Description: At 0 and 15 min, 0.5, 1, 2 and 4 h, 100 μL solution was taken out and 20 μL trichloroacetic acid (TCA) was added to precipitate protein of the serum, after standing for 20 min at 4° C., the solution was centrifuged at 12,000 rpm for 10 min. 20 μL supernatant was taken for HPLC analysis.

[2] = molecular target: T1, GRP78 protein (Homo sapiens, UniProt P11021); assay: Binding activity of VAP to GRP78 by surface plasmon resonance (Biacore); details: SPR, GRP78 coupled to CM5 chip
T1 sequence (P11021 19-654): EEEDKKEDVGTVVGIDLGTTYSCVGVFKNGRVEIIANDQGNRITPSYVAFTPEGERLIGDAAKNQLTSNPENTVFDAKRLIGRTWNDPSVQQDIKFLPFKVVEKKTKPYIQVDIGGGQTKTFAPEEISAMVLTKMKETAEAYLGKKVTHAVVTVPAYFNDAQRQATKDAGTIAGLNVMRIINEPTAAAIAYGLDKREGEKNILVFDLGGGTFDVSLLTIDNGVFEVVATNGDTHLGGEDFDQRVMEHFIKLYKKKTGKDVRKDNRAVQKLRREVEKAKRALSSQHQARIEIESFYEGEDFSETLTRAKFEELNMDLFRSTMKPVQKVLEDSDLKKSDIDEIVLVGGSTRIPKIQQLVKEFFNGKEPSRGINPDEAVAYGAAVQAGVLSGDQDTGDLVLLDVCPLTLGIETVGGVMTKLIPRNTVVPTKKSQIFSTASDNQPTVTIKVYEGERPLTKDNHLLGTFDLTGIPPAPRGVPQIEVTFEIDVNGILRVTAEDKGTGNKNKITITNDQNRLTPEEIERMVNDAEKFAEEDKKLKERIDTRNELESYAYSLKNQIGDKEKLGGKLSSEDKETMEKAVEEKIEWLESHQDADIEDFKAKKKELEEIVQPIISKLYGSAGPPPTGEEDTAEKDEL
Description: Pre-binding analysis was performed by the biacore system, and pH 5.0 was selected as the optimal pH for GRP78 binding to the CMS chip. […] The samples were injected from low to high concentration.

[3] = molecular target: T1, GRP78 protein; assay: VAP mutual competition inhibition test on U87 cells (flow cytometry); assay type: cell-based; design: saturate the receptor protein on the cell surface; endogenous in cells; host or cells: U87 glioma cells; details: 4° C., unlabeled peptide before fluorescein-labeled peptide
Description: U87 cells were digested by trypsin and transferred to EP tubes, washed with PBS three times to remove trypsin, pretreated at 4° C. for 20 min. The prepared peptide solution (non-fluorescent label) was also placed at 4° C. for low temperature pretreatment, then the peptide solution was mixed with the cells and shocked for 2 h to saturate the receptor protein on the cell surface. Then the fluorescein-labeled peptide solution was added.

[4] = tested on: intracranial U87 tumor; assay: Anti-glioblastoma efficacy test of intracranial glioma (survival); assay type: in vivo, nude mice
Description: After the nude mice was anesthetized and fixed with stereotaxic apparatus, intracranial U87 tumor bearing model was established on nude mice by implanted with U87 cells (5×10^5 cells dispersed in 5 μL of PBS buffer for each mouse) in the logarithmic growth phase into the right striatum (0.6 mm in front of […], 1.8 mm in the lateral direction, and 3 mm in depth). The status of naked mice was observed regularly. […] The total dose of DOX was 10 mg/Kg except 2.5 mg/Kg for low dose and 5 mg/kg for medium dose. The ^DVAP dose was the amount of ^DVAP contained in the high dose of ^DVAP-DOX. The survival time of mice were recorded (FIG. 24).

[5] = FIGS. 25A-25B

With SNTRVAP [^LVAP, reference compound] the “residual percentage of intact polypeptide (degradation)” value (from here on “residual percentage”) [1] was “completely degraded”, the “Kd value (dissociation)” value [2] was 0.01898 s⁻¹ and the “competitive inhibition between VAP peptides” value [3] was “completely inhibit each other”.

For `CC(C)[C@@H](NC(=O)[C@@H](C)NC(=O)[C@H]1CCCN1)C(=O)N[C@H](CCCNC(=N)N)C(=O)N[C@@H](C(=O)N[C@H](CC(N)=O)C(=O)N[C@H](CO)C(=O)O)[C@H](C)O` [^DVAP], the “residual percentage” value [1] was “hardly degraded”, the “Kd value (dissociation)” value [2] was 0.02091 s⁻¹ and the “competitive inhibition between VAP peptides” value [3] was “completely inhibit each other”. For the same molecule, the mean survival time ([4]; ^DVAP alone, amount contained in the high dose of ^DVAP-DOX) was 45.5 days.

In the case of `CC(C)[C@@H](NC(=O)[C@@H](CCCNC(=N)N)NC(=O)[C@H](NC(=O)[C@@H](CC(N)=O)NC(=O)[C@H](N)CO)[C@H](C)O)C(=O)N[C@H](C)C(=O)N1CCC[C@@H]1C(=O)O` [^SVAP], the “residual percentage” value [1] is reported as “hardly degraded”, the Kd [2] is reported as 5.22 µM and the “Kd value (dissociation)” value [2] is reported as 0.02826 s⁻¹. The “competitive inhibition between VAP peptides” value [3] was “completely inhibit each other”.

With `COc1cccc2c1C(=O)c1c(O)c3c(c(O)c1C2=O)C[C@@](O)(C(=O)CO)C[C@@H]3O[C@H]1C[C@H](N)[C@H](O)[C@H](C)O1` [DOX, doxorubicin] the “AUC0-6h” value [5] was 7976 ± 1515 ng·h/mL, the “MRT0-6h” value [5] was 1.836 ± 0.695 h and the “T1/2” value [5] was 2.131 ± 0.646 h. It also gave a mean survival time ([4]; total dose of DOX 10 mg/Kg (high dose), tail vein, days 10, 13, 16, 19, 22) of 36 days.
